# Legend:
# [1] = system: Streptococcus sp.; assay: In vitro antibacterial evaluation: minimum inhibitory concentration (MIC), broth dilution method; assay type: cell-based
# Procedure, shortened: (§1)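 Susceptibility determined by NCCLS-recommended broth dilution (M7-A2), Muller-Hinton II […]. Concentration span 64-0.06 μg/mL, inoculum 5×10^5 CFU/mL. Isolates include strains resistant to methicillin, penicillin and/or vancomycin.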
# [2] = system: Enterococcus sp.; assay: as above; assay type: cell-based
# Procedure, shortened: as §1
# [3] = system: Escherichia coli; assay: as above; assay type: cell-based
# Procedure, shortened: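 Inoculum: 5×10^5 CFU/mL. Range: 64-0.06 μg/mL. Medium: Muller-Hinton II […]; NCCLS M7-A2 broth dilution. Endpoint: lowest concentration inhibiting growth. Strains include methicillin-, penicillin- and/or vancomycin-resistant clinical isolates.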
# [4] = system: Staphylococcus sp.; assay: as above; assay type: cell-based; details: for MIC Staphylococcus aureus (ATCC 29213) / MIC Staphylococcus aureus (GC 1131) / MIC Staphylococcus aureus (GC 3051) / MIC Staphylococcus aureus (GC 3053) / MIC Staphylococcus aureus (GC 4541) / MIC Staphylococcus aureus (GC 4542) / MIC Staphylococcus aureus (GC 4544) / MIC Staphylococcus aureus (GC 4545): broth dilution, 18 hours at 35° C.
# Procedure, shortened: as §1
# [5] = system: Staphylococcus aureus-SMITH (GC 4543); assay: Acute lethal infection in mice (ED50); assay type: in vivo; details: female CD-1 mice, intraperitoneal challenge, intravenous dose 30 min. after infection, 7 day survival ratios
# Procedure, shortened: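 IP bacterial challenge, female CD-1 mice; inoculum lethal to untreated controls in 24-48 hr. IV dosing in saline or 5% dextrose 30 min post-infection, 5 mice/dose. ED50 from 7-day survival, 3 tests pooled.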
# [6] = broth dilution, inoculum 5×10^5 CFU/mL, 18 hours at 35° C.
structure (smiles),measurement,setting,value
COc1ccc(Oc2cccc(C3OCC4OC(OC5C(CO)OC(Oc6ccc(CC7NC(=O)C(C(C)c8ccccc8)NC(=O)CNC(=O)C(CO)NC(=O)C(C(O)C8CNC(=N)N8C8OC(CO)C(O)C(O)C8O)NC(=O)C(C(O)C8CNC(=N)N8)NC7=O)cc6)C(O)C5O)C(O)C(O)C4O3)c2)cc1 (stereo not shown) [Example 180],MIC Streptococcus agalactiae (GC 4564),[1]; [6],<0.06 µg/mL
same,MIC Streptococcus pneumoniae (ATCC 6301),[1]; [6],<0.06 µg/mL
same,MIC Streptococcus pneumoniae (GC 1894),[1]; [6],<0.06 µg/mL
same,MIC Streptococcus pneumoniae (GC 4565),[1]; [6],<0.06 µg/mL
same,MIC Streptococcus pyogenes (GC 4563),[1]; [6],<0.06 µg/mL
same,MIC Streptococcus pneumoniae (ATCC 6301),[1]; strain ATCC 6301,<0.06 µg/mL
same,MIC Streptococcus pneumoniae (GC 1894),[1]; strain GC 1894,<0.06 µg/mL
same,MIC Streptococcus pyogenes (GC 4563),[1]; strain GC 4563,<0.06 µg/mL
same,MIC Streptococcus agalactiae (GC 4564),[1]; strain GC 4564,<0.06 µg/mL
same,MIC Streptococcus pneumoniae (GC 4565),[1]; strain GC 4565,<0.06 µg/mL
same,MIC Enterococcus avium (GC 4558),[2]; [6],2 µg/mL
same,MIC Enterococcus faecalis (ATCC 29212),[2]; [6],4 µg/mL
same,MIC Enterococcus faecalis (GC 2242),[2]; [6],4 µg/mL
same,MIC Enterococcus faecalis (GC 2691),[2]; [6],2 µg/mL
same,MIC Enterococcus faecalis (GC 3059),[2]; [6],2 µg/mL
same,MIC Enterococcus faecalis (GC 4552),[2]; [6],2 µg/mL
same,MIC Enterococcus faecalis (GC 4553),[2]; [6],2 µg/mL
same,MIC Enterococcus faecalis (GC 4554),[2]; [6],2 µg/mL
same,MIC Enterococcus faecalis (GC 6189),[2]; [6],2 µg/mL
same,MIC Enterococcus faecium (GC 2243),[2]; [6],2 µg/mL
same,MIC Enterococcus faecium (GC 4556),[2]; [6],2 µg/mL
same,MIC Enterococcus faecium (GC 4557),[2]; [6],2 µg/mL
same,MIC Enterococcus faecalis (ATCC 29212),[2]; strain ATCC 29212,4 µg/mL
same,MIC Enterococcus faecalis (GC 2242),[2]; strain GC 2242,4 µg/mL
same,MIC Enterococcus faecium (GC 2243),[2]; strain GC 2243,2 µg/mL
same,MIC Enterococcus faecalis (GC 2691),[2]; strain GC 2691,2 µg/mL
same,MIC Enterococcus faecalis (GC 3059),[2]; strain GC 3059,2 µg/mL
same,MIC Enterococcus faecalis (GC 4552),[2]; strain GC 4552,2 µg/mL
same,MIC Enterococcus faecalis (GC 4553),[2]; strain GC 4553,2 µg/mL
same,MIC Enterococcus faecalis (GC 4554),[2]; strain GC 4554,2 µg/mL
same,MIC Enterococcus faecium (GC 4556),[2]; strain GC 4556,2 µg/mL
same,MIC Enterococcus faecium (GC 4557),[2]; strain GC 4557,2 µg/mL
same,MIC Enterococcus avium (GC 4558),[2]; strain GC 4558,2 µg/mL
same,MIC Enterococcus faecalis (GC 6189),[2]; strain GC 6189,2 µg/mL
same,MIC Escherichia coli (ATCC 25922),[3]; strain ATCC 25922,>64 µg/mL
same,MIC Escherichia coli (GC 4559),[3]; strain GC 4559,64 µg/mL
same,MIC Escherichi coli (GC 4560),[3]; strain GC 4560,2 µg/mL
same,MIC Staphylococcus aureus (ATCC 29213),[4]; 5×10^5 CFU/mL,2 µg/mL
same,MIC Staphylococcus aureus (GC 1131),[4]; 5×10^5 CFU/mL,2 µg/mL
same,MIC Staphylococcus aureus (GC 3051),[4]; 5×10^5 CFU/mL,1 µg/mL
same,MIC Staphylococcus aureus (GC 3053),[4]; 5×10^5 CFU/mL,2 µg/mL
same,MIC Staphylococcus aureus (GC 4541),[4]; 5×10^5 CFU/mL,2 µg/mL
same,MIC Staphylococcus aureus (GC 4542),[4]; 5×10^5 CFU/mL,2 µg/mL
same,MIC Staphylococcus aureus (GC 4544),[4]; 5×10^5 CFU/mL,2 µg/mL
same,MIC Staphylococcus aureus (GC 4545),[4]; 5×10^5 CFU/mL,2 µg/mL
same,MIC Staphylococcus aureus (ATCC 29213),[4]; strain ATCC 29213,2 µg/mL
same,MIC Staphylococcus aureus (GC 1131),[4]; strain GC 1131,2 µg/mL
same,MIC Staphylococcus aureus (GC 3051),[4]; strain GC 3051,1 µg/mL
same,MIC Staphylococcus aureus (GC 3053),[4]; strain GC 3053,2 µg/mL
same,MIC Staphylococcus aureus (GC 4541),[4]; strain GC 4541,2 µg/mL
same,MIC Staphylococcus aureus (GC 4542),[4]; strain GC 4542,2 µg/mL
same,MIC Staphylococcus aureus-SMITH (GC 4543),[4]; strain GC 4543,2 µg/mL
same,MIC Staphylococcus aureus (GC 4544),[4]; strain GC 4544,2 µg/mL
same,MIC Staphylococcus aureus (GC 4545),[4]; strain GC 4545,2 µg/mL
same,MIC Staphylococcus haemolyticus (GC 4546),[4]; strain GC 4546,2 µg/mL
same,MIC Coagulase Negative Staphylococcus (GC 4547),[4]; strain GC 4547,2 µg/mL
same,MIC Coagulase Negative Staphylococcus (GC 4548),[4]; strain GC 4548,1 µg/mL
same,MIC Coagulase Negative Staphylococcus (GC 4549),[4]; strain GC 4549,1 µg/mL
same,MIC Coagulase Negative Staphylococcus (GC 4551),[4]; strain GC 4551,1 µg/mL
same,MIC Coagulase Negative Staphylococcus (GC 6257),[4]; strain GC 6257,0.5 µg/mL
same,"median effective dose (ED50), Staphylococcus aureus-SMITH (GC 4543)",[5],0.05 mg/kg
